From patent US4333873A, “Pharmacologically active peptides” (Eli Lilly and Company, priority 1981, dated 1982)
Counter-ions that a name gives are not always drawn.

Test system: mouse
Experiment: mouse hot plate test (analgesic activity)
Assay type: in vivo
Details: hot plate 52° C., 15 minutes after administration, latency to jump
Description: In this test, a mouse is placed inside an upright acrylic cylinder comprising, as its base, a hot plate surface which is maintained at 52° C. The mouse is given, orally or by subcutaneous injection, a predetermined amount of test compound dissolved or suspended in a suitable carrier, and, 15 minutes after administration of the test compound, the mouse is placed on the hot plate surface. The latency in seconds until the mouse jumps from the hot plate surface is measure. […] This must occur in a dose range which produces no motor incoordination or incapacitation. The following Table records the ED50 results obtained from this test.

## C=CCN(C(=O)CNC(=O)[C@@H](C)NC(=O)[C@@H](N)Cc1ccc(O)cc1)[C@@H](Cc1ccccc1)C(N)=O [Example 1, L-Tyrosyl-D-alanyl-glycyl-L-(N^α -allyl)phenylalanine Amide, Acetate Salt]
  Analgesic Activity, Hot Plate Test ED50, mg./kg. subcutaneous: 0.01 mg/kg

## C[C@@H](NC(=O)[C@@H](N)Cc1ccc(O)cc1)C(=O)NCC(=O)N(CC1CC1)[C@@H](Cc1ccccc1)C(N)=O [Example 2, L-Tyrosyl-D-alanyl-glycyl-L-(N^α -cyclopropylmethyl)phenylalanine Amide, Acetate Salt]
  Analgesic Activity, Hot Plate Test ED50, mg./kg. subcutaneous: 0.012 mg/kg
